Data published in patent publication US20250100977A1, “MERCAPTOPYRIMIDINE COMPOUNDS THAT INHIBIT NONHOMOLOGOUS END JOINING AND METHODS THEREOF” (INDIAN INSTITUTE OF SCIENCE, priority 2021, published 2025).
Where two headings read alike, the source gives them in different places.

Tests used:
Ligase I = biological target: T1, Ligase I (Homo sapiens, UniProt P18858); assay: Inhibition of end joining by purified Ligase I; type: biochemical; settings: up to highest concentration of 1000 μM
T1 construct: made in house; host or cells: bacteria
Method: The compounds of the present invention were analysed for inhibition of end joining with purified Ligase I (FIG. 3A) and Ligase III/XRCC1 (FIG. 3F). The compounds were incubated with either purified Ligase I (FIG. 3B-E) or with Ligase III/XRCC1 (FIGS. 3G-J) in suitable NHEJ buffer at 25° C. for 30 min, followed by addition of radiolabeled DNA, and further incubation for 1 h at 25° C. Products were purified using phenol: chloroform, and run on denaturing PAGE.
Effects of these compounds on NHEJ and Ligase IV mediated joining were evaluated (FIG. 4A-K). The reactions were terminated by EDTA (10 mM), products were purified using phenol/chloroform, precipitated with chilled ethanol and glycogen, and resolved on 8% denaturing PAGE. The gel was dried, exposed, and signal was detected using phosphor Imager FLA9000 (Fuji, Japan), and quantified in MultiGauge software expressed as Photo Stimulated Luminescence Units (PSLU). Inhibition of end joining was reported at 200 μM and 100 μM, respectively for SCR116 and SCR132 (FIGS. 4A, B, C and D), with >50% inhibition at 200 and 100 μM concentrations, respectively. […] FIG. 4K depict the purification profile of Ligase IV and XRCC4. […]

Nalm6 = assay: Cytotoxicity (viable cells) in Nalm6; type: cell-based; settings: Homo sapiens, NALM-6, read-out: IC50 in cancer cell lines, Nalm6
Method: (§1) The compounds of the present invention were screened initially in leukemic and cervical cancer cell lines (Table 1). […] In cervical cancer cell line HeLa, IC50 was 5 and 2 μM, respectively for SCR116 and SCR132 (FIG. 5A-B).
(§2) Ligase IV specificity of the compounds of the present invention inside the cells were also determined using Ligase IV knock out (KO) cell line N114 compared to the wild type Nalm6 (Table 2, FIGS. 5C, D, E and F). […] Table 1 showing IC50 of SCR7 derivatives in cancer cell lines Nalm6 and HeLa. IC50 was calculated using GraphPad Prism software from the percentage of viable cells following treatment with the compounds at 48 h. Table 2 showing IC50 of SCR116 and SCR132 in a panel of 16 cancer cell lines.

HeLa = assay: Cytotoxicity (viable cells) in HeLa; type: cell-based; settings: read-out: IC50 in cancer cell lines, HeLa
Method: as §1, §2

Supt1 = assay: Cytotoxicity in Supt1; type: cell-based; settings: Homo sapiens, SUP-T1; Table 2; read-out: IC50 in cancer cell lines, Supt1
Method: as §2

[1] = system: Ligase IV knock out (KO) cell line N114; assay: Cytotoxicity in Ligase IV knock out cell line N114; type: cell-based; settings: Table 2, 48 h, read-out: IC50 in cancer cell lines, N114
Method: as §2

LN229 = assay: Cytotoxicity in LN229; type: cell-based; settings: Homo sapiens, LN-229; Table 2; read-out: IC50 in cancer cell lines, LN229
Method: as §2

EAC = assay: Cytotoxicity in EAC; type: cell-based, mice; settings: Mus musculus; Table 2; read-out: IC50 in cancer cell lines, EAC
Method: as §2

53BP1 foci in HeLa cells = assay: 53BP1 immunofluorescence in HeLa cells; type: cell-based; settings: alone or alongside radiation; 24 h
Method: FIG. 7(A-F) depicts evaluation of generation of double-strand breaks inside cells treated with compounds SCR116 and SCR132 alone or in combination, A. Immunofluorescence with 53BP1 in HeLa cells treated with increasing concentration of SCR116 (2 and 5 μM) and SCR132 (1 and 2 μM). Nucleus is stained in red using propidium iodide, while green signal represents 53BP1 foci (FITC). B. Quantification of 53BP1 foci inside HeLa cells treated with SCR116 and SCR132 for 24 h, as denoted using scatter plot. Significance was calculated using ANOVA in GraphPad Prism software (ns, not significant; *p<0.05, **p<0.005, ***p<0.0001). C-D. Bar graphs showing percentage of viable cells following treatment with the compounds alone, or in presence of γ-radiation (0.5 Gy) at 24 (C) and 48 h (D). 2 and 4 μM SCR116, and 1 and 2 μM SCR132 were used. E. Bar graph showing percentage of viable cells following treatment with SCR116 (0.375 μM) or SCR132 (0.125 μM) alone, or in presence of 0.25 μM etoposide at 48 h. F. Bar graph showing percentage of viable cells following treatment with SCR116 (0.375 μM) or SCR132 (0.125 μM) alone, or in presence of 0.375 μM 5-FU at 48 h, in accordance with an implementation of the present disclosure.

53BP1 foci in Nalm6 = 53BP1 foci in Nalm6 cells; type: cell-based; settings: 24 h, SCR116 2, 5 μM, SCR132 1, 2 μM
Method: FIG. 8(A-B) depicts accumulation of DSBs inside cells following treatment with the compounds. A. Representative images for HeLa cells subjected to neutral comet assay following treatment with SCR116 and SCR132 for 24 h. […] FIG. 8C, D are representative images for Nalm6 cells (C) and N114 cells (D) following treatment with SCR116 and SCR132 for 24 h. and FIG. 8E, F are scatter plot depicting quantification of percentage of 53BP1 foci treated with SCR116 (2, 5 μM) and SCR132 (1, 2 μM) in Nalm6 and N114.

[2] = system: Erlich Ascites Carcinoma (EAC) tumor; assay: Mice allograft model, Erlich Ascites Carcinoma (EAC); type: in vivo; settings: for Tumor progression: intraperitoneal; for Tumor progression / Tumor load: alternate days; for Tumor load: oral, 8 doses, pilot
Method: The compounds of the present disclosure were evaluated for the anti-cancer efficacy starting from lower concentrations using Mice allograft model. Mice allograft model was developed by injecting Erlich Ascites Carcinoma (EAC) cell lines in the thigh region of the mice followed by treatment with the compounds via intraperitoneal and oral routes on alternate days (FIG. 9C).
The effect of oral dose of the compounds of the present disclosure on mice Erlich Ascites Carcinoma (EAC) and Dalton's Lymphoma (DLA) tumors were also evaluated (FIGS. 10A-F).

[3] = Homo sapiens, HeLa, 48 h, Table 1, 48 h

T1 sequence (P18858 whole entry): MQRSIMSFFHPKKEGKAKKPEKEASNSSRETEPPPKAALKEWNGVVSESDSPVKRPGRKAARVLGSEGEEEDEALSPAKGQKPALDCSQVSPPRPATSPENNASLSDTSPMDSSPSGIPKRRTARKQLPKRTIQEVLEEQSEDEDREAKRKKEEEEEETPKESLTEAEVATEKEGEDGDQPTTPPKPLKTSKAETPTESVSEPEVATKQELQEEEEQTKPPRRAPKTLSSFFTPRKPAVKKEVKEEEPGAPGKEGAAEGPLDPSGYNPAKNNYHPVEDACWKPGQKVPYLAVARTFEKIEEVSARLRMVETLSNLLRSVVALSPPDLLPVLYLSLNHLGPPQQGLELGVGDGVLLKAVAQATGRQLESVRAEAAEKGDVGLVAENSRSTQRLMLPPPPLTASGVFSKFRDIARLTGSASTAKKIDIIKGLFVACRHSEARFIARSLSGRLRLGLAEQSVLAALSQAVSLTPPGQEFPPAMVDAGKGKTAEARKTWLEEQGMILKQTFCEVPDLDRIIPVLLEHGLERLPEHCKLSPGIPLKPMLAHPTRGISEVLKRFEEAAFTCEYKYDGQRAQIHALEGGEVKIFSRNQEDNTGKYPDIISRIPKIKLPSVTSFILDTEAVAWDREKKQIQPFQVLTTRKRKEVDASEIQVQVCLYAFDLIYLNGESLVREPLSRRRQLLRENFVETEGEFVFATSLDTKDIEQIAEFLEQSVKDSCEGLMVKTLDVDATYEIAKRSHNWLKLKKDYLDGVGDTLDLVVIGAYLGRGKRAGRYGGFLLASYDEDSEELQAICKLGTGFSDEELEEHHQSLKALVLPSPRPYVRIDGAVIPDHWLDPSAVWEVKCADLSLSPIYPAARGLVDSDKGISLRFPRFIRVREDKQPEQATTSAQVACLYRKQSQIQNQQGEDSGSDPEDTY

Q: What does the source list for `Nc1nc(S)nc(O)c1/N=C/c1ccc([N+](=O)[O-])s1` [Compound 16, (E)-6-amino-2-mercapto-5-(((5-nitrothiophen-2-yl)methylene)amino)pyrimidin-4-ol]?
A: Inhibition of end joining with Ligase I (Ligase I): no inhibition; IC50 (Nalm6; Table 1, 48 h): 3.44 µM; IC50 (Nalm6; Table 2): 3.44 µM; IC50 (HeLa; [3]): 5.92 µM; IC50 (HeLa; Homo sapiens, HeLa, Table 2): 5 µM; IC50 (Supt1): 1.32 µM; IC50 [1]: 14.1 µM; IC50 (LN229): 5.6 µM; IC50 (EAC): 16.5 µM; DNA damage marker 53BP1 (53BP1 foci in HeLa cells): increase in DNA damage marker 53BP1; 53BP1 foci (53BP1 foci in Nalm6): significant increase in 53BP1 foci; Tumor progression ([2]; 10 mg/kg): inhibition of tumor progression; Tumor load ([2]; 10 and 30 mg/kg): reduced tumor load; Tumor size ([2]; selected oral dose 10 mg/kg): significant reduction in tumor size

Q: How did the “Inhibition of end joining with Ligase I” value (Ligase I) turn out when `Nc1nc(S)nc(O)c1/N=C/c1sc(Cl)nc1Cl` [Compound 32, (E)-6-amino-5-(((2,4-dichlorothiazol-5-yl)methylene)amino)-2-mercaptopyrimidin-4-ol] was run?
A: no inhibition

Q: And the IC50 (Nalm6; Table 1, 48 h)?
A: 1.79 µM

Q: What about the IC50 (Nalm6; Table 2) of the same compound?
A: 1.79 µM

Q: And the IC50 (HeLa; [3])?
A: 2.08 µM

Q: What about the IC50 (HeLa; Homo sapiens, HeLa, Table 2) of the same compound?
A: 2 µM

Q: And the IC50 (HeLa; Table 2, listed as SCR132)?
A: 2.08 µM

Q: And the IC50 (Supt1)?
A: 0.734 µM

Q: What about the IC50 [1] of the same compound?
A: 10.1 µM

Q: And the IC50 (LN229)?
A: 7.7 µM

Q: What about the IC50 (EAC) of the same compound?
A: 14.8 µM

Q: What about the “DNA damage marker 53BP1” value (53BP1 foci in HeLa cells) of the same compound?
A: increase in DNA damage marker 53BP1

Q: What about the 53BP1 foci (53BP1 foci in Nalm6) of the same compound?
A: significant increase in 53BP1 foci

Q: And the Tumor progression ([2]; 5 mg/kg)?
A: inhibition of tumor progression

Q: What about the Tumor load ([2]; 5 and 15 mg/kg) of the same compound?
A: reduced tumor load

Q: And the Tumor size ([2]; selected oral dose 15 mg/kg)?
A: significant reduction in tumor size
